Where no end group is shown, it is not given here.
Key:
[1] = system: murine RAW 264.7 macrophages; conditions: 64 µM; cited from earlier work
C. jeikeium ATCC BAA-949 = assay type: cell-based, Corynebacterium jeikeium; conditions: lowest peptide concentration visually inhibiting growth after 20 h at 37 °C; TSB + 0.1% Tween 80; 2-fold serial dilutions; inoculum 2x10^6 CFU/mL diluted 1:1
Protocol: The MIC of the different AMPs against C. jeikeium ATCC BAA-949 were determined following the previously described procedure with some modifications. The bacterium was grown in TSB^+ up to an optical density (O.D.) of 0.8 (λ = 590 nm) and diluted to reach a concentration of 2× 10^6 colony forming units (CFU) per mL. Aliquots (50 µL) of this dilution were added to 50 µL of TSB^+ supplemented with 2-fold serial dilution of peptides previously dispensed in the wells of a 96 well plate. Controls were bacteria not treated with the peptides. […] MBC was defined as the lowest peptide concentration able to cause a ≥3 log reduction in the number of cells of the initial inoculum after 20 h of incubation.

Substance | cell viability [1] | MIC (C. jeikeium ATCC BAA-949)
GIFSKLAGKKIKNLLISGLKG-NH2 [Esc(1-21), esculentin-1a(1-21)] | about 50% | –
IIGPVLGLVGSALGGLLKKI-NH2 [Bombinin H2, bombinin H2] | – | 8 µM

Source: article PMC7459541, “Frog Skin-Derived Peptides Against Corynebacterium jeikeium: Correlation between Antibacterial and Cytotoxic Activities” (Antibiotics, 2020)
